Reference: US20050049245A1, “Heteroaryl-ethanolamine derivatives as antiviral agents” (priority 2002, published 2005)
Read-outs that look alike come from different tables or passages of the source.

What was measured:
[1] = target: HSV polymerase (Human herpesvirus 1, UniProt P04293); assay: HSV polymerase assay (Table 1); format: biochemical; conditions: HSV polymerase; read-out: Polymerase IC50 HSV
[2] = target: T1, HCMV polymerase (Human cytomegalovirus, UniProt P08546); assay: HCMV polymerase scintillation proximity assay (SPA); format: biochemical
T1 construct: made in house; host or cells: recombinant baculovirus-infected SF-9 cells
T1 sequence (P08546 whole entry): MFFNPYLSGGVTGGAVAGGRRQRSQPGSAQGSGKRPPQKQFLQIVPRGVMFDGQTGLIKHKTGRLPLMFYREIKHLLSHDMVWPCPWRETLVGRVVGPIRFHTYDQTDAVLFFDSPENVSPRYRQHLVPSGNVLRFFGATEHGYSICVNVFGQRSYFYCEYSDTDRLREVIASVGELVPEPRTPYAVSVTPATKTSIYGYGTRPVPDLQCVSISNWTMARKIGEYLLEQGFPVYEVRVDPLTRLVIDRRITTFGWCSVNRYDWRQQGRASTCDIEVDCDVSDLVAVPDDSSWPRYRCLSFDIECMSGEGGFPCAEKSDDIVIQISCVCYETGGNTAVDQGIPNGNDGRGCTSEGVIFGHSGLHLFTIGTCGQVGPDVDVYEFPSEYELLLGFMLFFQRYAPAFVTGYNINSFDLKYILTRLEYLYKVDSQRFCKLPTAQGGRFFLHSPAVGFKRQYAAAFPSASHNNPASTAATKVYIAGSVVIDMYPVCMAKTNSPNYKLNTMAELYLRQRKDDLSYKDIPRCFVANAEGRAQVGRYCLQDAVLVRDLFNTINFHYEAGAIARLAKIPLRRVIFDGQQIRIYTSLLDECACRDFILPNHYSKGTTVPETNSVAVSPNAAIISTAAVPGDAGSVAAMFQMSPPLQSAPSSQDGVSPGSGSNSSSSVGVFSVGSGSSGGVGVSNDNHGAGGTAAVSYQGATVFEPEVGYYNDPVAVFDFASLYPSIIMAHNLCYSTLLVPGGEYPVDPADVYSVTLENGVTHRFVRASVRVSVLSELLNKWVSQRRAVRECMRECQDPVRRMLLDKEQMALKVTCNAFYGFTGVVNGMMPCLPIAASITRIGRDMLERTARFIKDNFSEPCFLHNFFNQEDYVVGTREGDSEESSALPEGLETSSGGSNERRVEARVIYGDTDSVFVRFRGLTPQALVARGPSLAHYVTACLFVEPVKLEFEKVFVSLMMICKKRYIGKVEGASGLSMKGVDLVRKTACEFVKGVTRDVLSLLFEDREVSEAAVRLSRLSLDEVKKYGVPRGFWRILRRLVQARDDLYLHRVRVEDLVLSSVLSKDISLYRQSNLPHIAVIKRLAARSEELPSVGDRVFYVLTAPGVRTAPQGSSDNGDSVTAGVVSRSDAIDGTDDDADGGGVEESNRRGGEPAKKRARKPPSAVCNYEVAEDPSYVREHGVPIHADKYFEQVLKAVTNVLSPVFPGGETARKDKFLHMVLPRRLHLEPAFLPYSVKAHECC
Description: The HCMV polymerase assay is performed using a scintillation proximity assay (SPA) as described in several references, such as N. D. Cook, et al., Pharmaceutical Manufacturing International, pages 49-53 (1992); KY Takeuchi, Laboratory Practice, September issue (1992); U.S. Pat. No. 4,568,649 (1986); which are incorporated by reference herein. Reactions are performed in 96-well plates. The assay is conducted in 100 yl volume with 5.4 mM HEPES (pH 7.5), 11.7 mM KCl, 4.5 mM MgCl2, 0.36 mg/ml BSA, and 90 nM ^3H-dTTP. Assays are run with and without CHAPS, (3-[(3-Cholamidopropyl)-dimethylammonio]-1-propane-sulfonate) at a final concentration of 2 mM. HCMV polymerase is diluted in enzyme dilution buffer containing 50% glycerol, 250 mM NaCl, 10 mM HEPES (pH 7.5), 100 μg/ml BSA, and 0.01% sodium azide. The HCMV polymerase, which is expressed in recombinant baculovirus-infected SF-9 cells and purified according to literature procedures, is added at 10% (or 10 μl) of the final reaction volume, i.e., 100 μl. Compounds are diluted in 50% DMSO and 10 μl are added to each well. Control wells contain an equivalent concentration of DMSO. Unless noted otherwise, reactions are initiated via the addition of 6 nM biotinylated poly(dA)-oligo(dT) template/primer to reaction mixtures containing the enzyme, substrate, and compounds of interest. Plates are incubated in a 25° C. or 37° C. H2O bath and terminated via the addition of 40 μl/reaction of 0.5 M EDTA (pH 8) per well. Reactions are terminated within the time-frame during which substrate incorporation is linear and varied depending upon the enzyme and conditions used, i.e., 30 min. for HCMV polymerase. Ten (10) μl of streptavidin-SPA beads (20 mg/ml in PBS/10% glycerol) are added following termination of the reaction. Plates are incubated 10 min. at 37° C., then equilibrated to room temperature, and counted on a Packard Topcount. Linear regressions are performed and IC50's are calculated using computer software.
A modified version of the above HCMV polymerase assay is performed as described above, but with the following changes: Compounds are diluted in 100% DMSO until final dilution into assay buffer. In the previous assay, compounds are diluted in 50% DMSO. 4.5 mM Dithiothreitol (DTT) is added to the polymerase buffer.
All results are listed as Polymerase IC50 ([…]) values. In Table 1, the term “n.d.” refers to activity data not determined.

[3] = target: VZV polymerase (Varicella-zoster virus, UniProt P09252); assay: VZV polymerase assay (Table 1); format: biochemical; conditions: VZV polymerase; read-out: Polymerase IC50 VZV
Chain of VZV polymerase (P09252 whole entry): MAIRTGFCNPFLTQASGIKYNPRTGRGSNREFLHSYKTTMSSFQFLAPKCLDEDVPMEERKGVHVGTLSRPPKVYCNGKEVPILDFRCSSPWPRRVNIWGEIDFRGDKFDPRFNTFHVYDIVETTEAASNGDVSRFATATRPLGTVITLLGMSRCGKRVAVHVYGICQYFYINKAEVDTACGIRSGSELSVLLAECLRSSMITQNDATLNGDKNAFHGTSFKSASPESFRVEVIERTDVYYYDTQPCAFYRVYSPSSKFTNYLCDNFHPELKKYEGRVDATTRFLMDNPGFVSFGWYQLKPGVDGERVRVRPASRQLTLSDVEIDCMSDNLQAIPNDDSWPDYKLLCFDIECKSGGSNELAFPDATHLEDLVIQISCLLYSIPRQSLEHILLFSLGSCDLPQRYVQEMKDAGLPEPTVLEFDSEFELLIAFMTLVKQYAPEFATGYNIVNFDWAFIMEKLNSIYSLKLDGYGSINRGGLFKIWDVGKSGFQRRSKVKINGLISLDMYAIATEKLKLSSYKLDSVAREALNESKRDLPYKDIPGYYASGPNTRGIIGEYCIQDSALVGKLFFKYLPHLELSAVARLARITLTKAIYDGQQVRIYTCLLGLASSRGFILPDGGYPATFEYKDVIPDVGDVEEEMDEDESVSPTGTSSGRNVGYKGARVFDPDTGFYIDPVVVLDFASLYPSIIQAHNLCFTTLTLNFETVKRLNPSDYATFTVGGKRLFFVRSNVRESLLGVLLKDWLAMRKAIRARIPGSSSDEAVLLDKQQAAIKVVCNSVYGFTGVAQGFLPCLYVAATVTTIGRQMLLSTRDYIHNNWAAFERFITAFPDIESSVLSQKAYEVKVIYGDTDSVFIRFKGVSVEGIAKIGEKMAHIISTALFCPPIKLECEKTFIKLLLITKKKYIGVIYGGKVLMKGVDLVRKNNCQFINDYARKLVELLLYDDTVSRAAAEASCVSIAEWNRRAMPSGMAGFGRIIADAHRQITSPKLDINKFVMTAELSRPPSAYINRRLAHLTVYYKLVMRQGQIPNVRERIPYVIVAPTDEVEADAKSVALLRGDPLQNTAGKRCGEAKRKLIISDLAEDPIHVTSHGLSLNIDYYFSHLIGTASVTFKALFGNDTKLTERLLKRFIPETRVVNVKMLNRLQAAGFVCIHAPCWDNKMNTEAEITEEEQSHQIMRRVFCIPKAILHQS

[4] = HCMV polymerase, SPA, read-out: Polymerase IC50 HCMV

Chain of HSV polymerase (P04293 whole entry): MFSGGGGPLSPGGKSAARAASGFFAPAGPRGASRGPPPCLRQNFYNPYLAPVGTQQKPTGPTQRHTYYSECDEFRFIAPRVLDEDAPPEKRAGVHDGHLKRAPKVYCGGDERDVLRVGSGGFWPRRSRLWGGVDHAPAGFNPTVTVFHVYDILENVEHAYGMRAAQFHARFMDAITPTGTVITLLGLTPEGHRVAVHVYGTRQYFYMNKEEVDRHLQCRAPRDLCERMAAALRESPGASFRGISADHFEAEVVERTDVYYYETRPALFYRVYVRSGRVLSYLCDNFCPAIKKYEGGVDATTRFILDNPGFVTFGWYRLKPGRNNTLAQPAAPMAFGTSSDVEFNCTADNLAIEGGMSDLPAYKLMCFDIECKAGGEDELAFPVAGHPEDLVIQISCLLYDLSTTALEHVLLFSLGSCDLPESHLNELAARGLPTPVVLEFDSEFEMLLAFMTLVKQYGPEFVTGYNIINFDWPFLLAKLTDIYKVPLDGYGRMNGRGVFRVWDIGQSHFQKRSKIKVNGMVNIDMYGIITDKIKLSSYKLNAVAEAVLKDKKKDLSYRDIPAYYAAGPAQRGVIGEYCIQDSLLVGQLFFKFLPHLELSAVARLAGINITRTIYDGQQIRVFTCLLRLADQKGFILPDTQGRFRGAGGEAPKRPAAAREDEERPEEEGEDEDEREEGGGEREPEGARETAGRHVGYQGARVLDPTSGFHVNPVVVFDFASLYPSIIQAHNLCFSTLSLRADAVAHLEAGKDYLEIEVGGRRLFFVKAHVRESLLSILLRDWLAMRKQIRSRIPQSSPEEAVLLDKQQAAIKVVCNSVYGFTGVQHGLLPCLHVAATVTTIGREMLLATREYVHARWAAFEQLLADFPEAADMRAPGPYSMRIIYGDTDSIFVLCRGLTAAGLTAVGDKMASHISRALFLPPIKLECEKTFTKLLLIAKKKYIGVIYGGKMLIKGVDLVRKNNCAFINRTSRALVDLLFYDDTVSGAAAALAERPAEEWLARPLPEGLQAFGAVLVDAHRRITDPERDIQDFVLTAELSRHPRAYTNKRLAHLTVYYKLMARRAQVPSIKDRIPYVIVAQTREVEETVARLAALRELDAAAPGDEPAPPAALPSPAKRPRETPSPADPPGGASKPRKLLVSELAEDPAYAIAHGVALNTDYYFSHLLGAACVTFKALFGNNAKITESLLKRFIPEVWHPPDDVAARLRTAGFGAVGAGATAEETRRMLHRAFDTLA

| IC50 [1] [nM] | melting point | IC50 [2, 4] [nM] | IC50 [3] [nM] | SMILES | IC50 [2] [nM] |
| --- | --- | --- | --- | --- | --- |
| 980 | 169 to 172 °C (dec.) | 300 | 330 | CN(Cc1cc2c(=O)c(C(=O)NCc3ccc(Cl)cc3)cn(C)c2s1)CC(O)c1ccc[nH]1 (racemic) [Example 7, rac-N-(4-Chlorobenzyl)-2-(((2-hydroxy-2-(1H-pyrrol-2-yl)ethyl)(methyl)amino)-methyl)-7-methyl-4-oxo-4,7-dihydrothieno[2,3-b]pyridine-5-carboxamide] |  |
| 260 | 137 to 140 °C | 70 | 130 | Cc1ccc(C(O)CN(C)Cc2cc3c(=O)c(C(=O)NCc4ccc(Cl)cc4)cn(C)c3s2)o1 (racemic) [Example 3, rac-N-(4-Chlorobenzyl)-2-(((2-hydroxy-2-(5-methyl-2-furyl)ethyl)(methyl)amino)methyl)-7-methyl-4-oxo-4,7-dihydrothieno[2,3-b]pyridine-5-carboxamide] |  |
| 460 | 123 to 127 °C | 220 | 200 | CCn1cc(C(=O)NCc2ccc(Cl)cc2)c(=O)c2cc(CN(C)C[C@@H](O)c3ccco3)sc21 [Example 20, N-(4-Chlorobenzyl)-7-ethyl-2-((((2R)-2-(2-furyl)-2-hydroxyethyl)(methyl)amino)-methyl)-4-oxo-4,7-dihydrothieno [2,3-b]pyridine-5-carboxamide] |  |
| 120 | 177 to 178 °C | 70 | 60 | CN(Cc1cc2c(=O)c(C(=O)NCc3ccc(Cl)cc3)cn(C)c2s1)CC(O)c1ccc(-c2ccccc2)o1 (racemic) [Example 31, rac-N-(4-Chlorobenzyl)-2-(((2-(5-phenyl-2-furyl)-2-hydroxyethyl)(methyl)-amino)methyl)-7-methyl-4-oxo-4,7-dihydrothieno[2,3-b]pyridine-5-carboxamide] |  |
| 30 | 212 to 214 °C | 10 | 10 | CN(Cc1cc2c(=O)c(C(=O)NCc3ccc(Cl)cc3)cn(C)c2s1)CC(O)c1cc2ccccc2o1 (racemic) [Example 5, rac-2-(((2-(1-Benzofuran-2-yl)-2-hydroxyethyl)(methyl)amino)methyl)-N-(4-chlorobenzyl)-7-methyl-4-oxo-4,7-dihydrothieno[2,3-b]pyridine-5-carboxamide] |  |
| 1970 | 164 to 169 °C | 450 | 440 | CN(Cc1cc2c(=O)c(C(=O)NCc3ccc(Cl)cc3)cn(C)c2s1)CC(O)c1c[nH]cn1 (racemic) [Example 10, rac-N-(4-Chlorobenzyl)-2-(((2-hydroxy-2-(1H-imidazol-4-yl)ethyl)(methyl)amino)methyl)-7-methyl-4-oxo-4,7-dihydrothieno[2,3-b]pyridine-5-carboxamide] |  |
| 850 | 140 to 145 °C | 260 | 320 | CN(Cc1cc2c(=O)c(C(=O)NCc3ccc(Cl)cc3)cn(C)c2s1)CC(O)c1cccn1C (racemic) [Example 8, rac-N-(4-Chlorobenzyl)-2-(((2-hydroxy-2-(1-methyl-1H-pyrrol-2-yl)ethyl)-(methyl)amino)methyl)-7-methyl-4-oxo-4,7-dihydrothieno[2,3-b]pyridine-5-carboxamide] |  |
|  | 177.9 to 179.5 °C | 830 |  | CN(Cc1cc2c(=O)c(C(=O)NCc3ccc(Cl)cc3)cn(C)c2s1)CC(O)c1ncc[nH]1 (racemic) [Example 36, rac-N-(4-Chlorobenzyl)-2-(((2-hydroxy-2-(1H-imidazol-2-yl)ethyl)(methyl)-amino)methyl)-7-methyl-4-oxo-4,7-dihydrothieno[2,3-b]pyridine-5-carboxamide] |  |
| 200 | 120 to 123 °C | 90 | 90 | CN(Cc1cc2c(=O)c(C(=O)NCc3ccc(Cl)cc3)cn(C)c2s1)CC(O)c1c[nH]c2ccccc12 (racemic) [Example 11, rac-N-(4-Chlorobenzyl)-2-(((2-hydroxy-2-(1H-indol-3-yl)ethyl)(methyl)amino)-methyl)-7-methyl-4-oxo-4,7-dihydrothieno[2,3-b]pyridine-5-carboxamide] |  |
| 620 | 166 to 167 °C | 140 | 200 | Cc1cc(C(O)CN(C)Cc2cc3c(=O)c(C(=O)NCc4ccc(Cl)cc4)cn(C)c3s2)oc1C (racemic) [Example 30, rac-N-(4-Chlorobenzyl)-2-(((2-(4,5-dimethyl-2-furyl)-2-hydroxyethyl)(methyl)-amino)methyl)-7-methyl-4-oxo-4,7-dihydrothieno[2,3-b]pyridine-5-carboxamide] |  |
|  | 167 to 172 °C | 280 |  | Cc1cc(C(O)CN(C)Cc2cc3c(=O)c(C(=O)NCc4ccc(Cl)cc4)cn(C)c3s2)c(C)o1 (racemic) [Example 12, rac-N-(4-Chlorobenzyl)-2-(((2-(2,5-dimethyl-3-furyl)-2-hydroxyethyl)(methyl)-amino)methyl)-7-methyl-4-oxo-4,7-dihydrothieno[2,3-b]pyridine-5-carboxamide] |  |
| 530 | 128 to 132 °C (dec.) | 100 | 120 | CN(Cc1cc2c(=O)c(C(=O)NCc3ccc(Cl)cc3)cn(C)c2s1)CC(O)c1cc2ccccc2n1C (racemic) [Example 14, rac-N-(4-Chlorobenzyl)-2-(((2-hydroxy-2-(1-methyl-1H-indol-2-yl)ethyl)(methyl)-amino)methyl)-7-methyl-4-oxo-4,7-dihydrothieno[2,3-b]pyridine-5-carboxamide] |  |
| 840 | 151 to 153 °C | 250 | 390 | CN(Cc1cc2c(=O)c(C(=O)NCc3ccc(Cl)cc3)cn(C)c2s1)CC(O)c1ccoc1 (racemic) [Example 4, rac-N-(4-Chlorobenzyl)-2-(((2-(3-furyl)-2-hydroxyethyl)(methyl)amino)methyl)-7-methyl-4-oxo-4,7-dihydrothieno[2,3-b]pyridine-5-carboxamide] |  |
| 910 | 177.5 to 178.6 °C | 350 | 370 | CN(Cc1cc2c(=O)c(C(=O)NCc3ccc(Cl)cc3)cn(C)c2s1)CC(O)c1ccn[nH]1 (racemic) [Example 18, rac-N-(4-Chlorobenzyl)-2-(((2-hydroxy-2-(1H-pyrazol-5-yl)ethyl)(methyl)amino)-methyl)-7-methyl-4-oxo-4,7-dihydrothieno[2,3-b]pyridine-5-carboxamide] |  |
| 1920 | 213 to 219 °C (dec.) | 170 | 440 | CN(Cc1cc2c(=O)c(C(=O)NCc3ccc(Cl)cc3)cn(C)c2s1)CC(O)c1csc2ccccc12 (racemic) [Example 13, rac-2-(((2-(1-Benzothien-3-yl)-2-hydroxyethyl)(methyl)amino)methyl)-N-(4-chlorobenzyl)-7-methyl-4-oxo-4,7-dihydrothieno[2,3-b]pyridine-5-carboxamide] |  |

| SMILES | IC50 [1] [nM] | melting point | IC50 [2, 4] [nM] | IC50 [3] [nM] | IC50 [2] [nM] |
| --- | --- | --- | --- | --- | --- |
| CN(Cc1cc2c(=O)c(C(=O)NCc3ccc(Cl)cc3)cn(C)c2s1)CC(O)c1nccs1 (racemic) [Example 16, rac-N-(4-Chlorobenzyl)-2-(((2-hydroxy-2-(1,3-thiazol-2-yl)ethyl)(methyl)amino)-methyl)-7-methyl-4-oxo-4,7-dihydrothieno[2,3-b]pyridine-5-carboxamide] | 450 | 129 to 133 °C |  | 190 | 200 |
